Data reported in ChEMBL document CHEMBL4507266, “Data for DCP probe BAY-784” (2021).

Tests used:
[1] = target: Activin receptor type-1-like (Homo sapiens) (UniProt P37023); details: Compound concentration 1000.0 nM
[2] = target: RAC-gamma serine/threonine-protein kinase (Homo sapiens) (UniProt Q9Y243); details: Compound concentration 1000.0 nM
[3] = system: ALK tyrosine kinase receptor (Homo sapiens), Q9UM73 [C1156Y]; details: Compound concentration 1000.0 nM
[4] = target: 5'-AMP-activated protein kinase catalytic subunit alpha-1 (Homo sapiens) (UniProt Q13131); details: Compound concentration 1000.0 nM
[5] = target: Ankyrin repeat and protein kinase domain-containing protein 1 (Homo sapiens) (UniProt Q8NFD2); details: Compound concentration 1000.0 nM
[6] = target: Bone morphogenetic protein receptor type-1A (Homo sapiens) (UniProt P36894); details: Compound concentration 1000.0 nM
[7] = target: Cytoplasmic tyrosine-protein kinase BMX (Homo sapiens) (UniProt P51813); details: Compound concentration 1000.0 nM
[8] = target: Calcium/calmodulin-dependent protein kinase type 1B (Homo sapiens) (UniProt Q6P2M8); details: Compound concentration 1000.0 nM
[9] = target: Cyclin-dependent kinase-like 3 (Homo sapiens) (UniProt Q8IVW4); details: Compound concentration 1000.0 nM
[10] = target: Macrophage colony-stimulating factor 1 receptor (Homo sapiens) (UniProt P07333); details: Compound concentration 1000.0 nM
[11] = target: Casein kinase I isoform alpha (Homo sapiens) (UniProt P48729); details: Compound concentration 1000.0 nM
[12] = target: Ephrin type-A receptor 3 (Homo sapiens) (UniProt P29320); details: Compound concentration 1000.0 nM
[13] = system: Receptor-type tyrosine-protein kinase FLT3 (Homo sapiens), P36888 [D835Y]; details: Compound concentration 1000.0 nM
[14] = target: LIM domain kinase 2 (Homo sapiens) (UniProt P53671); details: Compound concentration 1000.0 nM
[15] = target: Serine/threonine-protein kinase STK11 (Homo sapiens) (UniProt Q15831); details: Compound concentration 1000.0 nM
[16] = target: Mitogen-activated protein kinase kinase kinase 15 (Homo sapiens) (UniProt Q6ZN16); details: Compound concentration 1000.0 nM
[17] = target: MAP kinase-activated protein kinase 5 (Homo sapiens) (UniProt Q8IW41); details: Compound concentration 1000.0 nM
[18] = target: Dual specificity mitogen-activated protein kinase kinase 4 (Homo sapiens) (UniProt P45985); details: Compound concentration 1000.0 nM
[19] = target: Serine/threonine-protein kinase 26 (Homo sapiens) (UniProt Q9P289); details: Compound concentration 1000.0 nM
[20] = target: Myosin light chain kinase, smooth muscle (Homo sapiens) (UniProt Q15746); details: Compound concentration 1000.0 nM
[21] = target: Myosin light chain kinase family member 4 (Homo sapiens) (UniProt Q86YV6); details: Compound concentration 1000.0 nM
[22] = target: Serine/threonine-protein kinase Nek2 (Homo sapiens) (UniProt P51955); details: Compound concentration 1000.0 nM
[23] = target: Serine/threonine-protein kinase NLK (Homo sapiens) (UniProt Q9UBE8); details: Compound concentration 1000.0 nM
[24] = target: Serine/threonine-protein kinase OSR1 (Homo sapiens) (UniProt O95747); details: Compound concentration 1000.0 nM
[25] = target: Cyclin-dependent kinase 17 (Homo sapiens) (UniProt Q00537); details: Compound concentration 1000.0 nM
[26] = target: Serine/threonine-protein kinase RIO1 (Homo sapiens) (UniProt Q9BRS2); details: Compound concentration 1000.0 nM
[27] = target: Receptor-interacting serine/threonine-protein kinase 4 (Homo sapiens) (UniProt P57078); details: Compound concentration 1000.0 nM
[28] = target: Ribosomal protein S6 kinase alpha-1 (Homo sapiens) (UniProt Q15418); details: Compound concentration 1000.0 nM
[29] = target: Serine/threonine-protein kinase SBK1 (Homo sapiens) (UniProt Q52WX2); details: Compound concentration 1000.0 nM
[30] = target: Serine/threonine-protein kinase 33 (Homo sapiens) (UniProt Q9BYT3); details: Compound concentration 1000.0 nM
[31] = target: Serine/threonine-protein kinase TAO2 (Homo sapiens) (UniProt Q9UL54); details: Compound concentration 1000.0 nM
[32] = target: TRAF2 and NCK-interacting protein kinase (Homo sapiens) (UniProt Q9UKE5); details: Compound concentration 1000.0 nM
[33] = target: NT-3 growth factor receptor (Homo sapiens) (UniProt Q16288); details: Compound concentration 1000.0 nM
[34] = target: Tyrosine-protein kinase TXK (Homo sapiens) (UniProt P42681); details: Compound concentration 1000.0 nM
[35] = target: Serine/threonine-protein kinase ULK2 (Homo sapiens) (UniProt Q8IYT8); details: Compound concentration 1000.0 nM
[36] = target: Tyrosine-protein kinase Yes (Homo sapiens) (UniProt P07947); details: Compound concentration 1000.0 nM
[37] = target: Alpha-1B adrenergic receptor (Homo sapiens) (UniProt P35368); details: Compound concentration 10.0 uM
[38] = target: T1, Alpha-2C adrenergic receptor (Homo sapiens) (UniProt P18825); details: Compound concentration 10.0 uM
T1 sequence (whole entry): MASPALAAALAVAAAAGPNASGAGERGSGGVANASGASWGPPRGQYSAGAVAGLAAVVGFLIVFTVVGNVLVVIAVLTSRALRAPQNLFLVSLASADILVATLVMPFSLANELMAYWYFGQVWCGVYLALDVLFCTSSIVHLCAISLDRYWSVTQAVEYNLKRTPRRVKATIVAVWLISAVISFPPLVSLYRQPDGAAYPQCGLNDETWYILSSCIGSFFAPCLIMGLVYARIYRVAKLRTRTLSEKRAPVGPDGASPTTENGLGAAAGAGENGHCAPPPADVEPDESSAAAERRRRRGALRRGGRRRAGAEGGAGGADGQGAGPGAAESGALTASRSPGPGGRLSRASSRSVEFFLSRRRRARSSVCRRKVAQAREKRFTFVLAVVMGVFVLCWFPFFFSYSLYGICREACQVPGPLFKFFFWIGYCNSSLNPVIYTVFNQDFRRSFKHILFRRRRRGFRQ

[39] = target: Beta-3 adrenergic receptor (Homo sapiens) (UniProt P13945); details: Compound concentration 10.0 uM

Ankyrin repeat and protein kinase domain-containing protein 1 (Homo sapiens), sequence (Q8NFD2 whole entry, the tested form may be a part): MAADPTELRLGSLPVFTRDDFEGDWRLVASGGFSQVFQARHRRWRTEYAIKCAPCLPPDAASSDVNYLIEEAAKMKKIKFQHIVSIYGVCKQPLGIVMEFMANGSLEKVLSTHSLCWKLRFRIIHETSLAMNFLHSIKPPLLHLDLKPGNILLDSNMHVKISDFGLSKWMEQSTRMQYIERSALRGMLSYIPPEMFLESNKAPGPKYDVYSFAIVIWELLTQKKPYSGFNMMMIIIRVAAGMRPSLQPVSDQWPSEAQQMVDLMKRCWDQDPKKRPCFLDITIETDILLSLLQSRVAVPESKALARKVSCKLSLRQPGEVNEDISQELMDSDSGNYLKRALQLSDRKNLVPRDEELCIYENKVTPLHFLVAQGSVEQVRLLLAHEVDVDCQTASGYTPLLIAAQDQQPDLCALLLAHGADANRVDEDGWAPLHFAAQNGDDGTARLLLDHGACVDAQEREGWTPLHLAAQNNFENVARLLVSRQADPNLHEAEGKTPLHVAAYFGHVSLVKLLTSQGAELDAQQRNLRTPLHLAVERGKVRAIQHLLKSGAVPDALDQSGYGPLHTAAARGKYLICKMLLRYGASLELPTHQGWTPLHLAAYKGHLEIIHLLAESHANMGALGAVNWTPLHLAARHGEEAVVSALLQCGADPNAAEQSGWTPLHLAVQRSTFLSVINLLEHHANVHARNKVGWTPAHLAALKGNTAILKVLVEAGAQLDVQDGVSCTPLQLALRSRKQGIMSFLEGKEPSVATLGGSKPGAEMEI
Myosin light chain kinase, smooth muscle (Homo sapiens), sequence (Q15746 whole entry): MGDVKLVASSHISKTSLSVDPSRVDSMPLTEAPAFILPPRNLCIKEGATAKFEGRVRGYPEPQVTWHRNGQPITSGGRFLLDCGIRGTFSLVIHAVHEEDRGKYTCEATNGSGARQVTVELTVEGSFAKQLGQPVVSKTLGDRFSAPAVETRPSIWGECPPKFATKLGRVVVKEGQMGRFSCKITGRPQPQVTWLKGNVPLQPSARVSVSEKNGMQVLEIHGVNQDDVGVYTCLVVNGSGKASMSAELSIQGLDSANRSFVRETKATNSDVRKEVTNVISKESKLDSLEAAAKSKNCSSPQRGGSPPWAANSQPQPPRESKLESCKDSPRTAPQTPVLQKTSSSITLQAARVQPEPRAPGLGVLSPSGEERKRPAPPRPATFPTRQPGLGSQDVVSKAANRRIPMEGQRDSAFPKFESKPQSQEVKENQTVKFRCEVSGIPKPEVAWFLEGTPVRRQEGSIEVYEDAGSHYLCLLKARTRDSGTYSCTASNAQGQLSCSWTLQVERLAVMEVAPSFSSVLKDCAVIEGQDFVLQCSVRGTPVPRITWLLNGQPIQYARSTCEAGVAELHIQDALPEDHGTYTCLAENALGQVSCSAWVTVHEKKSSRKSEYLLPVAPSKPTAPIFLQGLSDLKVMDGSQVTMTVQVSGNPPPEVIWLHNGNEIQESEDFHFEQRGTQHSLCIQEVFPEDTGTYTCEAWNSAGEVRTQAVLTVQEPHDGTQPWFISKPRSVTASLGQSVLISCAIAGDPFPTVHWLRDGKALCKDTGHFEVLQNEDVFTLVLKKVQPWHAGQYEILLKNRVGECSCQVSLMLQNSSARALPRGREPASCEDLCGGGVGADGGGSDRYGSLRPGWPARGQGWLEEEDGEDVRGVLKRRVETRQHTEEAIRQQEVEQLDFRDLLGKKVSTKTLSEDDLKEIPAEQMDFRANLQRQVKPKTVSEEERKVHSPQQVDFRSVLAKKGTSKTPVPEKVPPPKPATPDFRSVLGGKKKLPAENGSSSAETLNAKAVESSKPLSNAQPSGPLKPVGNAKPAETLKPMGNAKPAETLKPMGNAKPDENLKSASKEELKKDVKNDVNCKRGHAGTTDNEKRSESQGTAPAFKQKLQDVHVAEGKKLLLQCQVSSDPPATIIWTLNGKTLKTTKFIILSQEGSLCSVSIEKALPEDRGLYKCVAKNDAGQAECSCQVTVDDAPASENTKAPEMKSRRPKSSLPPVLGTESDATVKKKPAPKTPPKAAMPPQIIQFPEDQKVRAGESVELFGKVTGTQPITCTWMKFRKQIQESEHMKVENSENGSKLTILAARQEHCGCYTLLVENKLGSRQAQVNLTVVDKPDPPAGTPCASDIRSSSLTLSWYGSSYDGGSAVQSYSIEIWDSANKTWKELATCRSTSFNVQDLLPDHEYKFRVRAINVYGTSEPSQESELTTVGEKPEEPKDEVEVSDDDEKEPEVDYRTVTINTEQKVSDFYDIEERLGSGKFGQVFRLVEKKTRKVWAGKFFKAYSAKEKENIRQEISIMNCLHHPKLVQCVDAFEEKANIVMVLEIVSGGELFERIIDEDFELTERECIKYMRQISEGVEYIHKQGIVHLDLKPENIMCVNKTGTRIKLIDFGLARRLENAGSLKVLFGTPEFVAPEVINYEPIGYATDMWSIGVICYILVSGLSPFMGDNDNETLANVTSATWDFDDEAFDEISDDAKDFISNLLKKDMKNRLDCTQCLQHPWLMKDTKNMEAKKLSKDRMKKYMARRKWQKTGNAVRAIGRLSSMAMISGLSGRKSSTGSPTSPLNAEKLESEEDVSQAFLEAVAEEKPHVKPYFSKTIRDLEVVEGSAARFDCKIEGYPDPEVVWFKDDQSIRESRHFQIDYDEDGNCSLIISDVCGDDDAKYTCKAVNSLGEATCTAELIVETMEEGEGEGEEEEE
Serine/threonine-protein kinase STK11 (Homo sapiens), sequence (Q15831 whole entry): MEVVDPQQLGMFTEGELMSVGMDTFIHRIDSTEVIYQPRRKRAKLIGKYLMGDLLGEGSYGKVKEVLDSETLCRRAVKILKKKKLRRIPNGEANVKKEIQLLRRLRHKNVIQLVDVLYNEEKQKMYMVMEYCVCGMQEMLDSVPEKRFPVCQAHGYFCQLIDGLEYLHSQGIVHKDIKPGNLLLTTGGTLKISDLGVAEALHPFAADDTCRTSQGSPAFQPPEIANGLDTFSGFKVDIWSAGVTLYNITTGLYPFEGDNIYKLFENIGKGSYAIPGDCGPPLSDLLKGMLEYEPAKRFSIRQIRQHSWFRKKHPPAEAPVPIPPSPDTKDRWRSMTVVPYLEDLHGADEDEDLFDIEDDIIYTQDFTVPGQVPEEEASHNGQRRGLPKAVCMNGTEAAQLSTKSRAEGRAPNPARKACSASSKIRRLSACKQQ
Serine/threonine-protein kinase NLK (Homo sapiens), sequence (Q9UBE8 whole entry): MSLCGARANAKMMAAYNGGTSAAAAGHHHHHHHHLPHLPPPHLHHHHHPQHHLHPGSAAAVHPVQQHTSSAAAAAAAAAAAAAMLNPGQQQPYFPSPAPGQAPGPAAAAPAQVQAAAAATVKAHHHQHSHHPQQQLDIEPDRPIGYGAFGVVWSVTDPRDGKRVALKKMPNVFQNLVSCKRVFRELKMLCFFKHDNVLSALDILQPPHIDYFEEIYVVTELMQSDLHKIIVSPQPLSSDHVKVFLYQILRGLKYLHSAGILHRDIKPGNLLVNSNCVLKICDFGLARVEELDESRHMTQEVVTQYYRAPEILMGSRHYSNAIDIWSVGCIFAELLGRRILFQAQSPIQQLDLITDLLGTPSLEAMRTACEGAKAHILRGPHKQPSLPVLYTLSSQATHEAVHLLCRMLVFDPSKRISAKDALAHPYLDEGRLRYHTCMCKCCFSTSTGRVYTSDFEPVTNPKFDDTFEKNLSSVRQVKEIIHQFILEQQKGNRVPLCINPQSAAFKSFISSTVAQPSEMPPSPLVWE
Calcium/calmodulin-dependent protein kinase type 1B (Homo sapiens), sequence (Q6P2M8 whole entry): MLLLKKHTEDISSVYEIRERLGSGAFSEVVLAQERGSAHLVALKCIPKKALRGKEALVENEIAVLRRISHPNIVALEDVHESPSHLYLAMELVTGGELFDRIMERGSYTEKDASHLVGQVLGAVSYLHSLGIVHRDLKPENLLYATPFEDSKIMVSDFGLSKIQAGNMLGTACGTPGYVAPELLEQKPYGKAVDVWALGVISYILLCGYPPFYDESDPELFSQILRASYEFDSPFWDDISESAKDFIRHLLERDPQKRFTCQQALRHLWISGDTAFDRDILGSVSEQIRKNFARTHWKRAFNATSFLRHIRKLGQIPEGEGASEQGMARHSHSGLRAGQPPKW
Serine/threonine-protein kinase ULK2 (Homo sapiens), sequence (Q8IYT8 whole entry): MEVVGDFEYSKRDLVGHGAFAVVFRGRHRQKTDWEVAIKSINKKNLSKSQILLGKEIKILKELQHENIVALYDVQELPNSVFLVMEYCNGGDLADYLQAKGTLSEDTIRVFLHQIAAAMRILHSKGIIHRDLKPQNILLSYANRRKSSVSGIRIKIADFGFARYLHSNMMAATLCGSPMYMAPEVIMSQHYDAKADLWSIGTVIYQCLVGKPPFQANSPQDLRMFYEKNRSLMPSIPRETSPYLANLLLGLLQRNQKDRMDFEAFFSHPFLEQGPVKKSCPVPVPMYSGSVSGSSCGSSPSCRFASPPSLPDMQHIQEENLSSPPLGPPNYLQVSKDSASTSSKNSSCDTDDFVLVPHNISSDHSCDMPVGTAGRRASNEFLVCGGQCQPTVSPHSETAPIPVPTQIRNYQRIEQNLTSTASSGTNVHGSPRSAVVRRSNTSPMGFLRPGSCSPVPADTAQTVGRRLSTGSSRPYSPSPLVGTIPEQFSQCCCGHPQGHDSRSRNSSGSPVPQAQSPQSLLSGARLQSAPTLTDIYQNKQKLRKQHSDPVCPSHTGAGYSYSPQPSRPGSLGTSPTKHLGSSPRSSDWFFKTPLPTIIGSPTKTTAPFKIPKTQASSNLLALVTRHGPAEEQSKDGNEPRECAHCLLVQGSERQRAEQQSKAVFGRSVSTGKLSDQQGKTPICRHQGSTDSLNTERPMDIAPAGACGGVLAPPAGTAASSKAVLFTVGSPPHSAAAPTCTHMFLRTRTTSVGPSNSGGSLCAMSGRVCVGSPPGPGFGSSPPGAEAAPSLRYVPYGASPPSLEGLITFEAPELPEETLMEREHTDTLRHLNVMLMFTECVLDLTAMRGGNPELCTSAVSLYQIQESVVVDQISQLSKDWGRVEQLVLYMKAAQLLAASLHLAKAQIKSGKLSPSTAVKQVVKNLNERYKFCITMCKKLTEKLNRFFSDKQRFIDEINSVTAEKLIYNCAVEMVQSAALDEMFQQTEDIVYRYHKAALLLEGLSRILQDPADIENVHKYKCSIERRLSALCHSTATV

O=C(NCc1ncc(C(F)(F)F)cc1Cl)c1ccc2c(c1)C1(CCS(=O)(=O)CC1)[C@@H](C1CC1)N2S(=O)(=O)c1ccc(F)cc1 [BAY-786]
inactive: residual activity [1] 72% | residual activity [2] 86% | residual activity [3] 100% | residual activity [4] 97% | residual activity [5] 76% | residual activity [6] 100% | residual activity [7] 92% | residual activity [8] 96% | residual activity [9] 100% | residual activity [10] 74% | residual activity [11] 81% | residual activity [12] 67% | residual activity [13] 100% | residual activity [14] 94% | residual activity [15] 100% | residual activity [16] 78% | residual activity [17] 100% | residual activity [18] 76% | residual activity [19] 82% | residual activity [20] 74% | residual activity [21] 95% | residual activity [22] 88% | residual activity [23] 89% | residual activity [24] 71% | residual activity [25] 99% | residual activity [26] 78% | residual activity [27] 72% | residual activity [28] 89% | residual activity [29] 92% | residual activity [30] 86% | residual activity [31] 64% | residual activity [32] 71% | residual activity [33] 71% | residual activity [34] 83% | residual activity [35] 54% | residual activity [36] 93% | inhibition [37] -8.58% | inhibition [38] 15.7% | inhibition [39] -0.77%

O=C(NCc1ncc(C(F)(F)F)cc1Cl)c1ccc2c(c1)C1(CCS(=O)(=O)CC1)[C@H](C1CC1)N2S(=O)(=O)c1ccc(F)cc1 [BAY-784]
inactive: residual activity [1] 98% | residual activity [2] 100% | residual activity [3] 82% | residual activity [5] 89% | residual activity [6] 100% | residual activity [7] 100% | residual activity [8] 91% | residual activity [9] 100% | residual activity [10] 100% | residual activity [11] 92% | residual activity [12] 100% | residual activity [13] 100% | residual activity [14] 100% | residual activity [15] 100% | residual activity [16] 96% | residual activity [17] 100% | residual activity [18] 75% | residual activity [19] 100% | residual activity [20] 77% | residual activity [21] 100% | residual activity [22] 89% | residual activity [23] 100% | residual activity [24] 87% | residual activity [25] 100% | residual activity [26] 100% | residual activity [27] 93% | residual activity [28] 100% | residual activity [29] 97% | residual activity [30] 100% | residual activity [31] 81% | residual activity [32] 100% | residual activity [33] 84% | residual activity [34] 100% | residual activity [35] 58% | residual activity [36] 90% | inhibition [37] -4.46% | inhibition [38] 12.8% | inhibition [39] -2.87%
active: residual activity [4] 39%
